US12702689B2, “Anti-inflammatory compositions, and uses thereof” (P.L. THOMAS & CO., INC., priority 2022, dated 2026)

Legend:
Assay type in all cases: in vivo, BALB/cJ female mice
[1] = tested on: airway reactivity to acetyl-β-methacholine chloride; experiment: Airway hyperresponsiveness: total respiratory system resistance (Rrs) to methacholine, flexiVent; conditions: for total respiratory system resistance (Rrs) in response to methacholine: OVA+AKBA mice
Text: (§1) Allergic airway phenotype was induced by using an ovalbumin (OVA, hen egg) sensitization and challenge model as previously described with modifications [Beigelman, A. et al. Azithromycin attenuates airway inflammation in a noninfectious mouse model of allergic asthma. Chest 136, 498-506 (2009)]. Briefly (FIG. 1), two groups of mice (OVA control and OVA+AKBA) were sensitized with intraperitoneal ovalbumin plus alum on days 0 and 7, challenged for 3 days (day 14 to day 17) via nebulized OVA at 1% in PBS for 30 mins, and harvested 48 hr after final challenge. Supplementation groups (OVA+AKBA) were given 100 mg/kg of water soluble AKBA (pH 7) (PLT Health Solutions, Morristown, NJ, US) in autoclaved mouse water, via gavage, every other day for 10 days and then every day for the remainder of the experiment (9 days). OVA control and naïve mouse continued to receive normal autoclaved mouse water. Mice were weighted at the beginning and end of the experiment. Experiments involving AKBA were conducted twice, with the first group containing 5 mice per group and the second containing 15 mice per group (5 per group for naive). Experiment procedures were identical, and results were pooled for n=20 (n=5 for naive). Animal protocol 102063-0522 was approved by the University of Connecticut Health IACUC board.
Airway reactivity was assessed based on total respiratory system resistance (Rrs) response to increasing doses (0-100 mg/ml) of acetyl-β-methacholine chloride (Sigma-Aldrich, St. Louis, MO). Mice were […] (150 mg/kg ketamine and 10 mg/kg xylazine), underwent tracheostomies and were mechanically ventilated using the flexiVent system (SCIREQ, Montreal, CA). Airway reactivity was determined by assessing forced oscillatory mechanics every 10 s for 4 min following each methacholine challenge.

[2] = tested on: ovalbumin-induced allergic airway inflammation (lung); experiment: Lung tissue histology and scoring in OVA allergic airway model; conditions: OVA+AKBA mice, 100 mg/kg AKBA
Text: as §1, with “Experiment procedures were identical, and results were pooled for n=20 (n=5 for naive). Animal protocol 102063-0522 was approved by the University of Connecticut Health IACUC board.” left out
Lung sectioning and staining was performed by the UConn Health Research Histology Core (Farmington, CT, US). […] Sections from the left lung were evaluated in their entirety and representative were images taken. […]

[3] = tested on: IL-5, IL-4, IL-13, IL-10 in BAL fluid; experiment: BAL fluid cytokine markers, multiplex flow-cytometry based assay; conditions: OVA+AKBA mice, 100 mg/kg AKBA
Text: as §1, with “board. Experiments were repeated, as stated above, with oral gavages of B. pseudolongum culture in place of AKBA supplementation. Groups were designated as OVA control (n=10), OVA+B. pseudolongum (n=10) and naïve (n=5). OVA+B. pseudolongum groups were given 10^8 CFU B. pseudolongum in culture medium via gavage, every other day for 10 days and then every day for the remainder of the experiment (9 days). Multiple inflammatory mediators were analyzed in the cell-free supernatant of BAL fluid using a multiplex flow-cytometry based assay according to manufacturer's recommendations (BioLegend, San Diego, CA, US). Volume of cell free fluid was concentrated using a 50K centrifugal filter spun at 3000 g for 10-15 minutes. Samples were run on a ZE5 Cell Analyzer (Bio-Rad, Hercules, CA, US) and sample processing was conducting using software provided from the kit's manufacturer (BioLegend, San Diego, CA, US). Serum specific ovalbumin IgE levels was detected by using an ELISA kit with a sensitivity of 3.8 ng/mL per manufacturer's protocol (Cayman Chemical Company, Ann Arbor, MI, US).” for “board.”

SMILES: CC(=O)O[C@@H]1CC[C@@]2(C)[C@@H](CC[C@]3(C)[C@@H]2C(=O)C=C2[C@@H]4[C@@H](C)[C@H](C)CC[C@]4(C)CC[C@]23C)[C@@]1(C)C(=O)O [AKBA, 3-O-acetyl-11-keto-b-boswellic acid]
- total respiratory system resistance (Rrs) in response to methacholine ([1]; methacholine 12.5 mg, p=0.02 vs OVA control): 2.38±0.55
- total respiratory system resistance (Rrs) in response to methacholine ([1]; methacholine 25 mg, p=0.04 vs OVA control): 3.56±1.25
- difference in Rrs between OVA control and OVA+AKBA ([1]; higher methacholine concentrations (above 25 mg)): No significant difference
- difference in Rrs between all three groups ([1]; methacholine 0 mg/mL, ANOVA p=0.341): No significant difference
- histology score: inflammation and airway smooth muscle remodeling ([2]; score 0-3, blinded, p=0.1823 vs OVA control): 2.0±0.49
- histology score: mucus production ([2]; score 0-3, p=0.0278 vs OVA control): 2.0±0.4
- IL-10 in BAL fluid ([3]; not significant vs OVA control): 19.77 ± 12.19 ng/mL
- IL-13 in BAL fluid ([3]; not significant vs OVA control): 4.15 ± 3.15 ng/mL
- IL-5 in BAL fluid ([3]; p=0.0079 vs OVA control): 31.39 ± 17.71 ng/mL
- IL-4 in BAL fluid ([3]; p=0.0229 vs OVA control): 9.30 ± 6.67 ng/mL
